Measurements from ChEMBL document CHEMBL5120859, “Optimization of 4-arylthiophene-3-carboxylic acid derivatives as inhibitors of ANO1: Lead optimization studies toward their analgesic efficacy for inflammatory pain” (Eur J Med Chem, 2022).
Active and inactive are the calls of the source. The calls are words filed in the database; no cut-off is given here.

Legend:
[1] = Volume of distribution at steady state in C57BL/6 mouse at 40 mg/kg,iv measured upto 24 hrs by HPLC-MS/MS analysis; format: ADME, organism-based; conditions: in vivo, read-out: Vdss
[2] = molecular target: Voltage-gated inwardly rectifying potassium channel KCNH2 (Homo sapiens, UniProt Q12809); assay: Cardiotoxicity against human ERG expressed in HEK293 cells by patch clamp assay; format: toxicity, cell-based
[3] = molecular target: Sodium channel protein type 7 subunit alpha (Homo sapiens) (UniProt Q01118); assay: Inhibition of Nav1.7 (unknown origin) in resting condition at 30 uM by whole cell patch clamp electrophysiology relative to control
[4] = tested on: Mus musculus; assay: Analgesic activity in C57BL/6 mouse model of formalin-induced allodynia assessed as reduction on foot licking pain response at 40 to 80 mg/kg,po measured after 10 mins; format: functional, organism-based; conditions: dose 40-80 mg/kg
[5] = Ratio of drug concentration in brain to plasma in C57BL/6 mouse at 40 mg/kg,IG measured after 0.25 hrs by HPLC analysis; format: ADME, organism-based; conditions: po
[6] = Acute toxicity in C57BL/6 mouse assessed as toxic symptoms at 1000 mg/kg,po measured after 24 hrs; format: organism-based; conditions: in vivo
[7] = MRT (0 to t) in C57BL/6 mouse at 80 mg/kg,IG measured upto 24 hrs by HPLC-MS/MS analysis; format: ADME, organism-based; conditions: in vivo, po
[8] = Cmax in C57BL/6 mouse at 40 mg/kg,iv measured upto 24 hrs by HPLC-MS/MS analysis; format: ADME, organism-based; parameters: time < 24 hrs, dose 40 mg/kg, route iv; conditions: in vivo
[9] = Tmax in C57BL/6 mouse at 40 mg/kg,iv measured upto 24 hrs by HPLC-MS/MS analysis; format: ADME, organism-based; conditions: in vivo
[10] = Cytotoxicity against human HEK293 cells assessed as inhibition of cell growth at 30 uM incubated for 72 hrs by CCK-8 assay; format: toxicity, cell-based
[11] = tested on: Mus musculus; assay: Analgesic activity in C57BL/6 mouse model of formalin-induced allodynia assessed as reduction on foot licking pain response at 40 to 80 mg/kg,po measured at 15 to 60 mins; format: functional, organism-based; conditions: dose 40-80 mg/kg, time 15-60 min, DDE = dose-dependent effect
[12] = MRT (0 to t) in C57BL/6 mouse at 40 mg/kg,IG measured upto 24 hrs by HPLC-MS/MS analysis; format: ADME, organism-based; conditions: in vivo, po
[13] = Toxicity in C57BL/6 mouse model of capsaicin-induced allodynia assessed as increase in body temperature at 40 to 80 mg/kg,po; format: organism-based; conditions: in vivo, dose 40-80 mg/kg
[14] = tested on: Mus musculus; assay: Analgesic activity in C57BL/6 mouse model of CFA-induced mechanical hyperalgesia assessed as […] at 40 to 80 mg/kg,po measured after 12 hrs by Von Frey test; format: functional, organism-based; conditions: dose 40-80 mg/kg
[15] = molecular target: Voltage-dependent N-type calcium channel subunit alpha-1B (Homo sapiens) (UniProt Q00975); assay: Inhibition of Cav2.2 (unknown origin) at a holding potential +10 mV at 30 uM by whole cell patch clamp electrophysiology relative to control
[16] = Tmax in C57BL/6 mouse at 40 mg/kg,IG measured upto 24 hrs by HPLC-MS/MS analysis; format: ADME, organism-based; conditions: in vivo, po
[17] = tested on: Mus musculus; assay: Analgesic activity in C57BL/6 mouse model of CFA-induced mechanical hyperalgesia assessed as […] at 40 to 80 mg/kg,po measured after 7 days by Von Frey test; format: functional, organism-based; conditions: dose 40-80 mg/kg, time 7.0 day
[18] = Brain concentration in C57BL/6 mouse at 40 mg/kg,IG measured after 24 hrs by HPLC analysis; format: ADME, organism-based; conditions: po, read-out: Ct
[19] = AUC (0 to t) in C57BL/6 mouse at 40 mg/kg,iv measured upto 24 hrs by HPLC-MS/MS analysis; format: ADME, organism-based; parameters: dose 40 mg/kg, time < 24 hrs, route iv; conditions: in vivo
[20] = molecular target: Transient receptor potential cation channel subfamily V member 1 (Homo sapiens) (UniProt Q8NER1); assay: Inhibition of TRPV1 (unknown origin) at a holding potential +100 mV at 30 uM by whole cell patch clamp electrophysiology relative to control
[21] = Brain concentration in C57BL/6 mouse at 40 mg/kg,IG measured after 6 hrs by HPLC analysis; format: ADME, organism-based; conditions: po, read-out: Ct
[22] = Plasma concentration in C57BL/6 mouse at 40 mg/kg,IG measured after 6 hrs by HPLC analysis; format: ADME, organism-based; conditions: po
[23] = Cmax in C57BL/6 mouse at 40 mg/kg,IG measured upto 24 hrs by HPLC-MS/MS analysis; format: ADME, organism-based; parameters: dose 40 mg/kg, time < 24 hrs, route ig; conditions: in vivo, po
[24] = Tmax in C57BL/6 mouse at 80 mg/kg,IG measured upto 24 hrs by HPLC-MS/MS analysis; format: ADME, organism-based; conditions: in vivo, po
[25] = Plasma concentration in C57BL/6 mouse at 40 mg/kg,IG measured after 24 hrs by HPLC analysis; format: ADME, organism-based; conditions: po
[26] = molecular target: T1, Anoctamin-2 (Homo sapiens) (UniProt Q9NQ90); assay: Inhibition of human ANO2 expressed in HEK293 cells at 30 uM incubated for 5 mins by whole cell patch clamp electrophysiology relative to control; format: cell-based
T1 sequence (whole entry): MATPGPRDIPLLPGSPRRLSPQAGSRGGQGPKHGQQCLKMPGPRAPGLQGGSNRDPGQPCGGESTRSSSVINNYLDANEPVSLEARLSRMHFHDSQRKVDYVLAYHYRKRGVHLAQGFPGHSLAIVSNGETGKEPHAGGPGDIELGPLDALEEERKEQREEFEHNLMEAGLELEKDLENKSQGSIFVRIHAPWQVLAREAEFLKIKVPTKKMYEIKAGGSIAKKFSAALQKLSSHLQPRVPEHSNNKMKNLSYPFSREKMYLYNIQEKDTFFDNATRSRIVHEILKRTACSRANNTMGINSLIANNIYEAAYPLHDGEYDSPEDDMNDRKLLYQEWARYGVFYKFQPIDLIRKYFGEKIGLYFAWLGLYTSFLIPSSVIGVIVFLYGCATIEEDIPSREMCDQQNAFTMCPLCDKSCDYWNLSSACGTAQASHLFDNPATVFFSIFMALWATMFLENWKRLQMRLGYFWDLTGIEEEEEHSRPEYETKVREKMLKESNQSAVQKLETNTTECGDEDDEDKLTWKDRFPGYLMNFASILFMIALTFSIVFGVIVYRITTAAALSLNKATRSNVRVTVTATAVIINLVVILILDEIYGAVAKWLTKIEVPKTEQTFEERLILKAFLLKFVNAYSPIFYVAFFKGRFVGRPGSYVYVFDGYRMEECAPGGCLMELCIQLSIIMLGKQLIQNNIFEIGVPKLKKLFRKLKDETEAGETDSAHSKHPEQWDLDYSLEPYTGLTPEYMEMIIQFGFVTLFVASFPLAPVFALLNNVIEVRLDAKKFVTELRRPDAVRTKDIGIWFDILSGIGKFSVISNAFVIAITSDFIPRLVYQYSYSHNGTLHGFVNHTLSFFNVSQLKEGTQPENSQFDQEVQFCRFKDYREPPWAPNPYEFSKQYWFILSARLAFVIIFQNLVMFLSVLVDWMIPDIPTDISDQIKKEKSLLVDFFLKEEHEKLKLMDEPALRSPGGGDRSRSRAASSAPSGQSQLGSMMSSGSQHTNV

Chain of Transient receptor potential cation channel subfamily V member 1 (Homo sapiens) (Q8NER1 whole entry): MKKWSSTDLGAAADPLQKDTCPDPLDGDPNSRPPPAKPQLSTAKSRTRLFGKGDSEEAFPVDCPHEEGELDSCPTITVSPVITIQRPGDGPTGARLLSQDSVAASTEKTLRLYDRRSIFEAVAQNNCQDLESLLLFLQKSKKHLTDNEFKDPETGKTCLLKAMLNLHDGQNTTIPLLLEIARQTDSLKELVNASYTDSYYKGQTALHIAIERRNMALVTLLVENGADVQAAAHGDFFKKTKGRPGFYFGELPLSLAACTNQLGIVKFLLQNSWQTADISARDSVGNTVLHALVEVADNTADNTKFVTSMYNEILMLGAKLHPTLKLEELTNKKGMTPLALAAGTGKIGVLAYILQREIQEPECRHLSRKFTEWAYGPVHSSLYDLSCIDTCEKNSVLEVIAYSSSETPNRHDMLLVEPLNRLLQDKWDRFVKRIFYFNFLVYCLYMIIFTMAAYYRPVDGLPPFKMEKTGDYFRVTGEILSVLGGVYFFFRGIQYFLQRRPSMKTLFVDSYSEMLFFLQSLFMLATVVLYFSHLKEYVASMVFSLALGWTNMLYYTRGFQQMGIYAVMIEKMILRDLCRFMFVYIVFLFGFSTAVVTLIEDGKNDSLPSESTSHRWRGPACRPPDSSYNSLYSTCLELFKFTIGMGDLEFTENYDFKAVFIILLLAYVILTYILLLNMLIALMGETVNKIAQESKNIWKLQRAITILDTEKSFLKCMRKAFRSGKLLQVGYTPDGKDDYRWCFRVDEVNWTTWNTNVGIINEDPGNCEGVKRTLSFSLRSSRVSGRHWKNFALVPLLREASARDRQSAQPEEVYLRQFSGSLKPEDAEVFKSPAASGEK
Chain of Voltage-gated inwardly rectifying potassium channel KCNH2 (Q12809 whole entry): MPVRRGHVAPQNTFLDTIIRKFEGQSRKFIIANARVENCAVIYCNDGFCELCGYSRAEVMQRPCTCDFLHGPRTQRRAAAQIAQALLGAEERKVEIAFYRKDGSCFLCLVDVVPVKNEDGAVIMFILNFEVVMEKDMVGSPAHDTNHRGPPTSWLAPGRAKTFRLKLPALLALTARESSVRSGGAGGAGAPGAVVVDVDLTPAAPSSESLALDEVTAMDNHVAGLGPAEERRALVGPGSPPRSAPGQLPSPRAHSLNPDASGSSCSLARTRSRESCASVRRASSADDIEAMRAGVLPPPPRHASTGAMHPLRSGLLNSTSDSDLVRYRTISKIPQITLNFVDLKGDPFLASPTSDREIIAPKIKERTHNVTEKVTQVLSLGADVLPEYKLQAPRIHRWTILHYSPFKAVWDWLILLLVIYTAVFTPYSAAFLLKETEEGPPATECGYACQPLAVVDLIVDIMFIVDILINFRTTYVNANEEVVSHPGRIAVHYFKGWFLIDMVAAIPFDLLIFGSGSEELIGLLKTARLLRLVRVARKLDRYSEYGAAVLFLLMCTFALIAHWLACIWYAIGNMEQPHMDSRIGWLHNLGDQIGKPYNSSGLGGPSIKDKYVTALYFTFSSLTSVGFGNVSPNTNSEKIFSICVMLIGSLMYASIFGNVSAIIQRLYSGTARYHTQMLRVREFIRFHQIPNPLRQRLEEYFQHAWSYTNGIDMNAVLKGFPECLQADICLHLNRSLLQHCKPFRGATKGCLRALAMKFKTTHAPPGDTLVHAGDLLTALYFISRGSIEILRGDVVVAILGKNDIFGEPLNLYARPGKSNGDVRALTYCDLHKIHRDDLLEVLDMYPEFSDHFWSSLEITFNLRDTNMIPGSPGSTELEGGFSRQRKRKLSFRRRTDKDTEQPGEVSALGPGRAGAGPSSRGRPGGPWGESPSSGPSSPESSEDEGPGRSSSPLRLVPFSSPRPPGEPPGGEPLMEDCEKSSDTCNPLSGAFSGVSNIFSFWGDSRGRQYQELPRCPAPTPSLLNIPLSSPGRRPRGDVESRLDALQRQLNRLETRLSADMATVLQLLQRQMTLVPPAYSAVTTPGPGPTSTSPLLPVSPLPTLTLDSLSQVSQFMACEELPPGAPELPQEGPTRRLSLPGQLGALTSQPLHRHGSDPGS
Chain of Sodium channel protein type 7 subunit alpha (Homo sapiens) (Q01118 whole entry): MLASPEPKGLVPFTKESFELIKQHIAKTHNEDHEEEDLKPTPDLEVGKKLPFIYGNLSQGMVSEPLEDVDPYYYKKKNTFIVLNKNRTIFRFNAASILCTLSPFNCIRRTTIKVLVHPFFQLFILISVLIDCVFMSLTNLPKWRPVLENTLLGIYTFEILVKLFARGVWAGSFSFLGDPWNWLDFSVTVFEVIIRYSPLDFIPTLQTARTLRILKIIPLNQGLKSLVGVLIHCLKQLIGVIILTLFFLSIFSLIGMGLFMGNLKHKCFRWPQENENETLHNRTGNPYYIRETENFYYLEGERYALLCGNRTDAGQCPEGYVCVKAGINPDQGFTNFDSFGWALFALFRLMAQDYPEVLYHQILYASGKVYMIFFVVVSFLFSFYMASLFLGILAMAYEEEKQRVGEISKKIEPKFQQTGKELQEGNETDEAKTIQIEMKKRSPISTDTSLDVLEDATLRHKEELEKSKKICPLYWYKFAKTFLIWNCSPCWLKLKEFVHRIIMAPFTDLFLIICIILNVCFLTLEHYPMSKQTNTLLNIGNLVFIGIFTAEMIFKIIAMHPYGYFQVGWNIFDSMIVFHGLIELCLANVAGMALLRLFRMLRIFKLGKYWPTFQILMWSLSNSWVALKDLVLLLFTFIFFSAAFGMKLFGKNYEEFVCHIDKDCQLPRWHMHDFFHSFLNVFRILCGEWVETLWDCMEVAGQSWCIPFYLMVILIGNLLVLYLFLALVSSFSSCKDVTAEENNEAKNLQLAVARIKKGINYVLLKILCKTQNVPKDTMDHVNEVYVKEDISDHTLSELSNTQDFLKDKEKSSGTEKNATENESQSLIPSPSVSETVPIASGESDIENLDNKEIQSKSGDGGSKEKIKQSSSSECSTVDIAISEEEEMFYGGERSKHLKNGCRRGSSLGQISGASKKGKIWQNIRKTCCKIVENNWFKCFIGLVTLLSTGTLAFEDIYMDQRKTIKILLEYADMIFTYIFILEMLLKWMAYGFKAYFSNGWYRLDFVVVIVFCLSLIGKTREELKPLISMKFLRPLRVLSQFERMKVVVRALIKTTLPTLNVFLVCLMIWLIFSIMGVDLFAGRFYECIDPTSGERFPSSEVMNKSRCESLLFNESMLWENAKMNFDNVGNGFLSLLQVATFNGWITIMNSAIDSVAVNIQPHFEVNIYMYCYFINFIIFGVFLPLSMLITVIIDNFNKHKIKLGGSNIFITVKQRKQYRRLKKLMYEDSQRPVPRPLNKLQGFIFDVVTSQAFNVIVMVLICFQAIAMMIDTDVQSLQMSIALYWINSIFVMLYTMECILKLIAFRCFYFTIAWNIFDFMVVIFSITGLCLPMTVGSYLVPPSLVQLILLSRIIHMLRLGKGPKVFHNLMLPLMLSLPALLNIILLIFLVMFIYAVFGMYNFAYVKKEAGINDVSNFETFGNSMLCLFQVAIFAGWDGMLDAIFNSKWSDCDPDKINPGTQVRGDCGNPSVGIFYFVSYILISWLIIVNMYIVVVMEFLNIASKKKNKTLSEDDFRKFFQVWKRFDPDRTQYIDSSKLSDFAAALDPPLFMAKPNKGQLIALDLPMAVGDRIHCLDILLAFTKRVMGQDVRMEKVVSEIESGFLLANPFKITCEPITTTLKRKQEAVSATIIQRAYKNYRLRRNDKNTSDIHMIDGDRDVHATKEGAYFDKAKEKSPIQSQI

O=C(Nc1scc(-c2ccc(Cl)cc2)c1C(=O)O)c1cc(F)ccc1F
Vd [1]: 0.8 L/kg | IC50 [2]: > 30 µM | inhibition [3]: 4.4% | Activity [4]: Active | Ratio [5]: 1.5% | Activity [6]: Non-Toxic | MRT last at 24 h [7]: 456 min | Cmax [8]: 183 µg/mL | Tmax [9]: 4.8 min | inhibition at 72 h, 30 µM [10]: < 10% | Activity [11]: Dde | MRT last at 24 h [12]: 324 min | Activity [13]: Non-Toxic | Activity [14]: Active | inhibition [15]: 32% | Tmax [16]: 15 min | Activity [17]: Active | concentration at 24 h [18]: 74.8 ng/g | AUC(0-t) at 24 h [19]: 350 µg·h/mL | inhibition [20]: 17% | concentration at 6 h [21]: 337 ng/g | concentration at 6 h [22]: 24.3 µg/mL | Cmax [23]: 97.7 µg/mL | Tmax [24]: 10.2 min | concentration at 24 h [25]: 1.67 µg/mL | inhibition [26]: 72.8%
